The values below come from a melting point compilation (Tetko et al.; mined from patent text by program, amines drawn as free bases though some values may be those of a salt).

Compound `CS(=O)(=O)Nc1ccc(O)cn1` had a melting point of 246 to 247 °C. With `CC(C)(C)OC(=O)N1CC2CC1C(=O)S2` (centres undefined) the figure was 91 °C.

Compound `O=c1oc(-c2ccc(OCc3ccc(Cl)c(Cl)c3)cc2)cc(O)c1SCCc1ccccc1` yielded a melting point of 168 to 169 °C.

Compound `NC(=O)Cc1c(C(=O)c2ccccc2)[nH]c2cc(Cl)ccc12` came in with a melting point of 234 to 237 °C.

With `O=C(O)c1ccc(S(=O)(=O)c2ccccc2)cc1`, the melting point is 128 to 132 °C. With `COc1ccc2c(=O)c(C(N)=O)cn(C)c2c1`, the melting point fell in the range of 304 to 306 °C. `CN(C[C@H]1CC[C@H](c2nc3ccccc3[nH]2)CC1)C(=O)OCc1ccccc1` returned a melting point of 146 to 148 °C. For `CC(C)(C(=O)OCC(=O)c1ccccc1)n1c(=O)[nH]c2cc3ccccc3cc2c1=O`, the melting point lay within 184 to 185 °C.

`CCc1cccc(NS(=O)(=O)c2ccc(N3CCNC3=O)cc2)c1`: the melting point was in the range of 188 to 190 °C. In the case of `CCCNCCCOc1ccc(-c2ccc(C(=O)OCC)cc2)cc1-c1ccc2c(c1)C(C)(C)CCC2(C)C` it was 120 °C; in that of `COC(=O)c1[nH]c2ccccc2c1Oc1ccccc1N`, 183 to 184 °C; in that of `Cc1cc(Br)cnc1CCCCNC1=NS(=O)(=O)c2cc(S(N)(=O)=O)ccc21`, 219 to 221 °C. `O=C(O)c1cn(-c2ccc(F)cc2)c2cc(N3CCNC(c4ccco4)C3)c(F)cc2c1=O` (centres undefined): the melting point was found to be 242 °C.

The compound `OC(Cn1cncn1)c1ccc(Oc2ccc(Br)cc2)cc1Cl` (centres undefined) returned a melting point of 115 to 118 °C. `CC(CCCn1c(C)nc2c(N)nc3ccccc3c21)=NO`: the melting point was in the range of 264 to 266 °C. For `CC(=O)NC(NC(=O)c1ccccc1C(=O)O)C(=O)NCc1ccccc1` (centres undefined), the melting point fell in the range of 186 to 188 °C. As for `CCOCCNC(=O)c1c(Cl)cccc1[Si](C)(C)C`, the melting point was 71 to 73 °C.

Compound `Oc1ccc(Br)cc1-c1ccc2nonc2c1` returned a melting point of 179 to 181 °C. In the case of `Cc1ccccc1C1(CNC(=O)Nc2c(C(C)C)cccc2C(C)C)CCCC1` it was 147 to 150 °C; in that of `CCCN(CCC)Cc1cnc(-c2ncn3c2CN(C)C(=O)c2ccccc2-3)o1`, 133 to 135 °C; in that of `Cc1nc(Br)c2n1-c1ccc(Cl)cc1C(c1ccccc1F)=NC2`, 201 to 205 °C. With `O=c1c(-c2cc[nH]n2)coc2ccccc12` the figure was 141 to 142 °C; with `COC(=O)c1ccc(-c2nnc(-c3cccc(NC(=O)Nc4ccc(C(C)C)cc4)c3)o2)cc1`, more than 270 °C; with `CC(C)(C)NC(=O)[C@@H]1CCCN1C(=O)[C@@H](O)[C@H](Cc1ccccc1)NC(=O)[C@H](CC(N)=O)NC(=O)OC(C)(C)C`, 113 to 115 °C. On to `COc1ccc2c(c1)Sc1c(cc(OC)c(O)c1Br)N2C(=O)OC(C)OC(=O)C(C)(C)C` (centres undefined), for which the melting point is 85 °C.

As to `CCNC(=O)Nc1cc(-c2c(-c3ccc(F)c(C)c3)nc3cc(C(C)(C)C)c(Cl)nn23)ccn1`, the melting point is 246 to 247 °C. As for `O=c1oc(=O)n(C2CC2)c2cc(F)c(F)cc12`, the melting point was 138 to 139 °C. `CNC12CCCCC1CCc1cc(O)ccc12` (centres undefined) had a melting point of 191 °C. As for `CCCCNC(=O)NS(=O)(=O)c1cscc1C`, the melting point is 126 to 131 °C. In turn, `CC(C)(C)[C@H]1OC(=O)[C@H](c2cccc(Cl)c2)O1` showed a melting point of 40 to 42 °C. In turn, `O=C1NC(=O)C(=Cc2ccc(SCCc3ccccc3)cc2)S1` returned a melting point of 182 to 183 °C. Regarding `COC(=O)CCC(=O)c1ccc(N)cc1`, the melting point lay in the range of 160 to 162 °C. On to `CC(=O)NCOc1ccc(S(=O)(=O)N2C3CCC2CN(CC(=O)Nc2ccccc2C)C3)cc1`, for which the melting point was 205 to 206 °C. As to `COc1cc(OC)cc(C2(Cl)C(C)(C)C2(C)C)c1`, the melting point was 119 to 121 °C. With `COc1ccccc1-n1c(=O)[nH]c2c(C(N)=O)nc(-c3cccc4[nH]ccc34)nc21` the figure was 312 to 313 °C. With `Cn1ncc(SCc2ccccc2)c(Cl)c1=O` the figure was 102 to 104 °C; with `C=CC(=O)Nc1ccc2c(c1)nnn2C(C)=O`, 167 to 170 °C. `CS(=O)(=O)Nc1cc2occc(=O)c2cc1Oc1ccccc1NC=O` had a melting point of 203 to 204 °C. In the case of `CN(C)C=C(C#N)C(=O)c1cc(F)c(Cl)cc1Cl` it was 138 to 139 °C. `COc1ccc(C=NNS(=O)(=O)c2ccc(C)cc2)cc1` returned a melting point of 103 to 105 °C. In the case of `O=CC1=C(c2ccc(Cl)c(Cl)c2)C2CCC1CC2` it was 71 to 71.5 °C; in that of `Cc1ccc2c(c1)C=Cc1cc(C)c(C)cc1C2c1cn(Cc2ccc(C(=O)O)o2)c(=O)[nH]c1=S` (centres undefined), 292 °C.

For the compound `CCCN(C1=C(O)CC(CCc2ccc(O)cc2)(C2CCCC2)OC1=O)c1ccccc1` (centres undefined), the melting point was 95 °C.

On to `COc1ccc(C(=O)N2c3ccccc3C(n3c4ccccc4c4ccccc43)CC2CCCCCN(C)C)cc1OC` (centres undefined), for which the melting point fell in the range of 198 to 200 °C. The compound `CC(C)(C)c1cc(/C=C/C(=O)O)n(Cc2ccc(C(F)(F)F)cc2Cl)n1` returned a melting point of 175 to 176 °C. In the case of `Clc1ccc2c(Cl)nc(-c3ccc(Br)cc3)nc2c1`, the melting point was in the range of 189 to 190 °C.

In turn, `OCc1cnc2cc(Br)ccc2c1O` registered a melting point of more than 300 °C. In the case of `Cc1cn(C)c2c1N(C(=O)CCl)c1ccccc1NC2=O` it was 267 to 269 °C. With `O=C(O)CCc1ccc(OCc2sc3ccccc3c2Cl)cc1` the figure was 136 to 137 °C; with `Cc1cc2ccccc2n1-c1ccc(OCc2ccccc2)c(F)c1`, 70 to 71 °C; with `CC1(C)CC(c2cccc(C(F)(F)F)c2)c2ccc(O)cc2O1` (centres undefined), 63 to 68 °C. For `CC(C)NCC(O)c1ccc2c(c1)OCO2` (centres undefined), the melting point was 117 to 118 °C. In the case of `CC(=O)NC1(c2ccc(CN3CCN(c4cccc(F)n4)CC3)cc2)CC1` it was 135 to 136 °C. In the case of `CC(c1cc(Cl)cc([N+](=O)[O-])c1O)c1cc(Br)cc([N+](=O)[O-])c1O` (centres undefined) it was 161 °C. With `CC(=O)C(O)C1OC(n2cc(Br)c(=O)[nH]c2=O)CC1N=[N+]=[N-]` (centres undefined) the figure was 112 to 114 °C.

Consider `CCCCCc1c(-c2ccc3cc(OC)ccc3c2)n(Cc2ccccc2)c2ccccc12`, for which the melting point lay within 76 to 80 °C. In the case of `O=C(Nc1ccccc1N1CCc2ccccc21)c1ccccc1F` it was 139 to 141 °C; in that of `NC(=O)c1ncc(Cl)cc1N`, 152 to 156 °C; in that of `CCOC(=O)Cc1cnc(N)s1`, 101 °C. In turn, `CCOCc1nc2c(N)nc3cc(-c4ccccc4)ccc3c2n1CC1CCN(C(=O)OC(C)(C)C)CC1` displayed a melting point of 194 to 195 °C. With `Fc1ccc2[nH]cc(C3=CCN(CC4COc5ccc6c(c5O4)CCCO6)CC3)c2c1` (centres undefined) the figure was 205 to 206 °C; with `CCc1cc(O)c2c(ccc3nc[nH]c32)n1`, 309 to 317 °C; with `CCCc1cc(=O)oc2c(C=O)c(O)cc(O)c12`, 236 to 237 °C. With `NC(=O)C(F)(F)C(F)(F)C(=O)C(F)(F)F`, the melting point was 82 to 87 °C. With `COc1ccc(Cl)cc1C(=O)N(C)CCc1ccc(CCC(=O)O)cc1` the figure was 152 to 153 °C; with `COc1cccc(Sc2cccc([N+](=O)[O-])c2C#N)c1`, 144 to 147 °C. With `NS(=O)(=O)c1ccc(N2CN(c3ccccc3)CC2=O)c(Cl)c1` the figure was 204 °C.

Compound `Cc1nc(N2C(=O)N(Cc3ccc(C(F)(F)F)cc3)CC2O)sc1C(=O)NCc1cccnc1` (centres undefined) had a melting point of 171 to 172 °C. `CCOC(=O)C1=C(COC)NC(COC)=C(C(=O)OCC)C1c1ccccc1C(F)(F)F` returned a melting point of 133 to 134 °C. With `CCC1(O)CC(=O)OCc2c1ccn(Cc1cc3cc4c(cc3nc1I)OCCO4)c2=O` (centres undefined) the figure was 165 to 167 °C. `CCOC(=O)C(=O)CC(=O)c1cn(Cc2ccc(Cl)cc2)c2ccccc2c1=O` showed a melting point of 174 to 176 °C. Take `Cc1ccc(Nc2c(N)cc(C(=O)O)cc2S(N)(=O)=O)c(C)c1`: the melting point fell in the range of 241 to 242 °C.

`OC(C1=NCCN1)(c1ccccc1)c1cccc(Cl)n1` (centres undefined) displayed a melting point of 154 to 156 °C. `CC(C)Oc1cccc(-c2nc3ncccc3o2)c1` showed a melting point of 68.5 to 70.5 °C.

`Cc1nc(-n2ccn(Cc3ccc(F)cc3)c2=O)sc1C(=O)NCc1ccccc1` displayed a melting point of 167 to 168 °C. With `Nc1cc(-c2ccccc2)nn1-c1c(Cl)cc(C(F)(F)F)cc1Cl` the figure was 142 °C; with `Cc1cc(C)c(S(=O)(=O)NC(CN2CCCc3cc(C)ccc32)C(F)(F)F)c(C)c1` (centres undefined), 143 to 144 °C. With `C#CC[C@H]1CC[C@H](C(=O)O)CC1` the figure was 84 to 86 °C.

Compound `COC(=O)COc1ncccc1Oc1cc(NC(=O)CC(=O)C(F)(F)F)c(F)cc1Cl` gave a melting point of 159 °C. Turning to `N#CC(N=Nc1cc(S(=O)(=O)O)ccc1OC(=O)c1ccccc1)=C(OC(=O)c1ccccc1)c1ccccc1`, the melting point lay within 193 to 195 °C. `CC(C)(C)OC(=O)Nc1ccc(-c2ccco2)cc1[N+](=O)[O-]` came in with a melting point of 169 to 172 °C. `CCC(=O)NCCC1c2cc(OC)ccc2-c2ccc3c(c21)OCO3` (centres undefined): the melting point lay within 145 to 147 °C.

In the case of `O=C(O)c1ccc2c(c1)Sc1ccc([N+](=O)[O-])cc1C=C2`, the melting point is 304 to 306 °C.

In turn, `C[Si](C)(C)C1=C(c2ccccc2)C(c2ccccc2)=C([Si](C)(C)C)[Si]1(C)C` came in with a melting point of 100 °C. `Cc1nn(C2CCCCC2)c(N)c1C(N)=O`: the melting point was in the range of 181 to 182 °C.

The compound `CC(C)(C)[Si](C)(C)OCCn1ccc(N)n1` registered a melting point of 54 to 55 °C.

`COCOc1ccc(C=O)c(OCc2ccc(Cl)cc2Cl)c1C` returned a melting point of 128 °C. In the case of `CCOC(=O)[C@H]1[C@@H]2CC(=O)[C@@](N=[N+]=[N-])(C(=O)OCc3ccccc3)[C@@H]21` it was 46 to 48 °C. In turn, `COc1ccc(C(=O)CCC(=O)O)cc1OC1CCCC1` had a melting point of 111 to 113 °C.

A word on the melting point: it is the temperature of the solid-liquid transition.
